{
  "source": "patent EP0574808A1",
  "about": "“Amidine-biphenyl derivatives, process for their production & medical preparation containing them” (Dr. Karl Thomae GmbH, priority 1992, dated 1993)",
  "system": "Collagen-induzierte Thrombozytenaggregation",
  "assay": "Ex vivo inhibition of collagen-induced platelet aggregation after oral administration (Born and Cross photometric method)",
  "conditions": "oral 3 mg/kg, suspended in Natrosol; Rhesusaffen; Collagen 2 µg/ml in platelet-rich plasma",
  "text": "Beispielsweise wurden die Verbindungen der allgemeinen Formel I auf ihre biologischen Wirkungen wie folgt untersucht: Die Hemmung der Thrombozytenaggregation nach oraler Gabe der Prüfsubstanz wird ex vivo an Rhesusaffen ermittelt.\nDirekt vor der oralen Verabreichung der in Natrosol suspendierten Prüfsubstanz wird den Tieren eine Blutprobe aus der Kubitalvene als Referenzwert entnommen. Zu definierten Zeiten nach der Substanzgabe werden erneut Blutproben gewonnen und wie folgt untersucht.\nDas mit 3,14% Natriumcitrat im Volumenverhältnis 1:10 versetzte Vollblut wird mit 200 g für 15 Minuten zentrifugiert. Der Überstand an plättchenreichem Plasma wird vorsichtig abgehoben. Aus dem erythrozytenreichen Sediment wird durch Zentrifugation mit 4000 g für 10 Minuten das plättchenarme Plasma als Überstand gewonnen.\nDie mit Collagen (Hormonchemie, München; 2 µg/ml Endkonzentration im plättchenreichen Plasma) ausgelöste Thrombozytenaggregation in diesen ex vivo Proben wird nach der Methode von Born und Cross (J. Physiol. 170, 397 (1964)) photometrisch gemessen. Die nach Collagenstimulation gemessene größte Lichtdurchlässigkeit des plättchenreichen Plasmas wird mit dem Referenzwert verglichen, um die Hemmung der Aggregation zu den verschiedenen Zeitpunkten der Blutentnahme nach Substanzgabe relativ zum Referenzwert zu bestimmen.",
  "data": [
    {"smiles": "Cl.N=C(N)c1ccc(-c2ccc(C(=O)N3CCC(CC(=O)OC4CCCCC4)CC3)cc2)cc1", "note": "[Beispiel 1, 4-Amidino-4'-[4-(cyclohexyloxycarbonylmethyl)-piperidinocarbonyl]-biphenyl-hydrochlorid]", "values": [
      {"measurement": "Dauer der Hemmung der Collagen-induzierten Thrombozytenaggregation ex vivo", "result": "> 4", "unit": "Stunden"}
    ]}
  ]
}
